The record followed here is patent publication US11034670B2, “Poly-ADP ribose polymerase (PARP) inhibitors” (Mitobridge, Inc., priority 2016, dated 2021).

In this assay the test system is kidney injury (ischemia-reperfusion). As to conditions: rat; for blood urea nitrogen (BUN) / plasma creatinine: 15 mg/kg IV after ischemia-reperfusion, 24 hours after reperfusion, vs IR-vehicle; for kidney injury: dosed IV after ischemia-reperfusion.

As for `C[C@H]1CN(c2ccc(C#N)cn2)CCN1C(=O)CCc1nc2ccc(F)cc2c(=O)[nH]1` [Ex. 29, 6-[(3S)-4-[3-(6-fluoro-4-oxo-3H-quinazolin-2-yl)propanoyl]-3-methyl-piperazin-1-yl]pyridine-3-carbonitrile], the “blood urea nitrogen (BUN)” value is reported as “significantly reduced”, the plasma creatinine entry is “significantly reduced” and the kidney injury entry is reported as “reduced kidney injury”.
Turning to `C[C@H]1CN(c2ccc(C#N)cn2)CCN1C(=O)CCc1nc2cccc(F)c2c(=O)[nH]1` [Ex. 30, 6-[(3S)-4-[3-(5-fluoro-4-oxo-3H-quinazolin-2-yl)propanoyl]-3-methyl-piperazin-1-yl]pyridine-3-carbonitrile], the “blood urea nitrogen (BUN)” value is on record as “significantly reduced”, the plasma creatinine result is “significantly reduced” and the kidney injury result is “reduced kidney injury”.
